Laboratory results from patent publication US20110190285A1 (priority 2008, published 2011).

Key:
[1] = biological target: botulinum toxin recombinant light chain (Clostridium botulinum, UniProt P0DPI0); test: biochemical
botulinum (serotype-A) = botulinum (serotype-A) (Clostridium botulinum, UniProt P0DPI1); test: cell-based; details: for inhibition at 30 µM: read-out: Cell Biology (% inhibition at 30 uM); for IC50: read-out: Cell Biology IC50
Chain of botulinum (serotype-A) (P0DPI1 2-1296 limits assumed): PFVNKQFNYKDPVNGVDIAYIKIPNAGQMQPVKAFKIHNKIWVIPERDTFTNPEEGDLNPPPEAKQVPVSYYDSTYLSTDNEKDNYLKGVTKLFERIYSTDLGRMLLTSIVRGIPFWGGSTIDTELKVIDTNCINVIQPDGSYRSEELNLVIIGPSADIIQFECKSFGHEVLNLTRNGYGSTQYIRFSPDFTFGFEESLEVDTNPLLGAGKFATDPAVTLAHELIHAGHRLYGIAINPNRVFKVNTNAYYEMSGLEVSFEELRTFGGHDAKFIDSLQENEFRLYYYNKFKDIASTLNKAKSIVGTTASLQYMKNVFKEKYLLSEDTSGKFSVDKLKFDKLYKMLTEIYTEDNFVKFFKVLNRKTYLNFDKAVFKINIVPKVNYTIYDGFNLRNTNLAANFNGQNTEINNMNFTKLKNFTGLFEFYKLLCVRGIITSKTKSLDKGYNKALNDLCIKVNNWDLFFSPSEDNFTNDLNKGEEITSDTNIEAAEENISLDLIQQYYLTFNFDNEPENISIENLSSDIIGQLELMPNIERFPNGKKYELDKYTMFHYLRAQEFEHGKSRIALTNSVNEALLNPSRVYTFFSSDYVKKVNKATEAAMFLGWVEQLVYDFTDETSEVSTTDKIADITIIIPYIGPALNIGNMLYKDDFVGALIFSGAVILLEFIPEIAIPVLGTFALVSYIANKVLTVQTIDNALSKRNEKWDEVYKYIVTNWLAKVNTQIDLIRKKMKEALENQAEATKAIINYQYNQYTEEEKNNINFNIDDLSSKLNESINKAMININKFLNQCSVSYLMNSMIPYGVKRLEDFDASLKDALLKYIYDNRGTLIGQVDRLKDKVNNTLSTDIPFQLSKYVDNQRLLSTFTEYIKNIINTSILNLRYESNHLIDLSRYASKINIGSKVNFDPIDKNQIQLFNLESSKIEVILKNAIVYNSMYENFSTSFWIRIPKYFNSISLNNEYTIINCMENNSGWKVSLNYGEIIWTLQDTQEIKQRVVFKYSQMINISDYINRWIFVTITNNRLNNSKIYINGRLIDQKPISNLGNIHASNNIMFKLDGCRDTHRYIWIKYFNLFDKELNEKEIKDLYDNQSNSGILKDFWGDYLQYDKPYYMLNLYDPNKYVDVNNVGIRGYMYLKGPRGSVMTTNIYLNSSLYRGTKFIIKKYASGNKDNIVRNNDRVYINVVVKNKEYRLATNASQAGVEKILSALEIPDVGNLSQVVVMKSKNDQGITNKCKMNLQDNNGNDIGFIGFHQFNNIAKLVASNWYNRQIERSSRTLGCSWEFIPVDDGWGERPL

Chain of botulinum toxin recombinant light chain (P0DPI0 2-448 limits assumed): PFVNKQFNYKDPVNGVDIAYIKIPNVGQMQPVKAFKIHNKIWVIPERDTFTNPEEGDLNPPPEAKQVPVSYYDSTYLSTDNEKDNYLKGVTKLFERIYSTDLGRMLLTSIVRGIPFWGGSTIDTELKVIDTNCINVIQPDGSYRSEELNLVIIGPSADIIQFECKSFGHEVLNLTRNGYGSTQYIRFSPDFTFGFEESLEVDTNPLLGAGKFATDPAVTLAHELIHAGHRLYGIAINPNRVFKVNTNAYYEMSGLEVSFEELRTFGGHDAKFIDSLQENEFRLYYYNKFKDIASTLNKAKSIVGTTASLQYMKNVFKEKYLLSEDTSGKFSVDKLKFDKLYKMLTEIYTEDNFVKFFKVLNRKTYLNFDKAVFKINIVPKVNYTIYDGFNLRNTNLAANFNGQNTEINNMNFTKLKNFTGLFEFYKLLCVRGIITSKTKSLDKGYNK

Row | SMILES | IC50 [1] | inhibition at 30 µM (botulinum (serotype-A)) | IC50 (botulinum (serotype-A))
1 | C[C@@H](NC(=O)CS)c1ccc2ccccc2c1 | 8 to 21 µM |  | 
2 | O=C(CS)Nc1cc(-c2ccc(Cl)cc2)n[nH]1 |  | 57 to 100% | 10 to 19 µM
3 | CCOC(=O)Cc1csc(NC(=O)CS)n1 |  | 86% | 
4 | Cc1ccc(NC(=O)CS)cc1C#N |  | 77% | 
5 | O=C(CS)Nc1ccc2c(c1)Cc1cc(Br)ccc1-2 |  | 90% | 
6 | O=C(CS)Nc1cc(-c2ccc(F)cc2)n[nH]1 |  | 73 to 78% | 
7 | CC(NC(=O)CS)c1ccc(Cl)cc1Cl (stereo not drawn) [drawing 65] | 5 to 27 µM |  | 
8 | CC(NC(=O)CS)c1ccc(Cl)cc1Cl (stereo not drawn) [drawing 69] |  |  | 18 µM
